The values below come from publication PMC7690585, “Target-Mediated Brain Tissue Binding for Small Molecule Inhibitors of Heat Shock Protein 90” (Pharmaceutics, 2020).

SMILES strings stand for the structures.

This series is described as follows: in vitro. Particulars: NMRI, mouse, brain homogenate, pH 7. The protocol:
Brain tissue from Naval Medical Research Institute (NMRI) mice was homogenized in phosphate buffer (1 g: 2 mL) and stored in −80 °C freezer before use. For dialysis experiment, 150 µL of brain homogenate (fresh blood collected on EDTA-K2 and diluted 1:1 with phosphate buffer or plasma) was added to one compartment of a dialysis plate (assembled according to the manufacturer instructions with a dialysis membrane between the 2 compartments) against 150 µL of phosphate buffer pH 7. The test compound was added to the compartment with brain homogenate (or plasma) and the plate was incubated in an incubator with a 5% CO2 and rotating at 150 rpm for 5 h. At the end of the incubation time, aliquots of 90 µL of samples were removed from both the buffer and the brain homogenate compartments. The aliquots were added to 120 µL of acetonitrile containing the internal standard. The mixture was centrifuged at 4000 rpm for 10 min and the supernatant was collected for LC-MS/MS analysis. All equilibrium dialysis studies were performed in triplicate at each tested concentration.
Binding to brain tissues was assessed using 6 different concentrations of test items ranging from 0.3 to 100 µM. Warfarin was used as control.
Determination of fractions unbound was conducted according to the equations below:fu = Creceiver (CT0 − Creceiver)(1)
In brain homogenate (blood or plasma):(2) % Undiluted fu=100 ×1/D/1/fu−1+1/D (3) % Recovery=100 × Creceiver +Cdonor/CT0 where
Dilution factor (D) is determined as 3 in this assay.

Broadly, the fraction unbound is free concentration divided by total concentration. Low readings indicate little free substance, high ones much free substance. The compound `CC(=O)CC(c1ccccc1)c1c(O)c2ccccc2oc1=O` (stereo not shown) [Warfarin] yielded a fraction unbound at 5 h, 0.3 µM of 0.086 ± 0.002; an unbound share (fraction unbound) at 5 h, 1 µM of 0.112 ± 0.001; a fraction unbound at 5 h, 3 µM of 0.143 ± 0.005; a free fraction (fraction unbound) at 5 h, 10 µM of 0.143 ± 0.006. This compound registered a fraction unbound at 5 h, 30 µM of 0.168 ± 0.006 and a free fraction (fraction unbound) at 5 h, 100 µM of 0.179 ± 0.009. Further, the “Ratio (30 µM/1 µM) Unbound Fractions in Brain” value (5 h) turned out to be 1.5.
